In the supplement of paper PMC10307832:

What was measured:
Assay in all cases: relative viability (nuclei count vs DMSO), 5 days (fraction); higher = more cells survive
Entinostat + Luminespib = compound: Nc1ccccc1NC(=O)c1ccc(CNC(=O)OCc2cccnc2)cc1 [Entinostat] + CCNC(=O)c1noc(-c2cc(C(C)C)c(O)cc2O)c1-c1ccc(CN2CCOCC2)cc1 [Luminespib] (partner 0.01 µM)
Method in brief: (§1)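 Relative viability was taken as the ratio of nuclei in treated wells to nuclei in vehicle wells. Lung cancer cell lines in 1536-well plates received compounds by pin tool one day after seeding, either one drug alone or a fixed anchor-drug dose plus five library-drug doses (not always all listed) in √10 steps. Nuclei were counted on 4× images after 5 days of treatment, and values are medians of duplicate plates.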

[1] = compound: C1COCCN1C2=NC(=NC3=C2OC4=C3C=CC=N4)C5=CC(=CC=C5)NC(=O)C6=CN=C(C=C6)N + Cc1nc(Nc2ncc(C(=O)Nc3c(C)cccc3Cl)s2)cc(N2CCN(CCO)CC2)n1 [Dasatinib] (partner 0.075 µM)
Method in brief: as §1

Entinostat + Lapatinib = compound: Nc1ccccc1NC(=O)c1ccc(CNC(=O)OCc2cccnc2)cc1 [Entinostat] + CS(=O)(=O)CCNCc1ccc(-c2ccc3ncnc(Nc4ccc(OCc5cccc(F)c5)c(Cl)c4)c3c2)o1 [Lapatinib] (partner 2 µM)
Method in brief: as §1

SGI-1776 + Pictilisib = compound: CN1CCC(CNc2ccc3ncc(-c4cccc(OC(F)(F)F)c4)n3n2)CC1 [SGI-1776] + CS(=O)(=O)N1CCN(Cc2cc3nc(-c4cccc5[nH]ncc45)nc(N4CCOCC4)c3s2)CC1 [Pictilisib] (partner 1 µM)
Method in brief: as §1

Cell Line	relative viability (Entinostat + Luminespib; first compound 0.02 µM)	relative viability (Entinostat + Luminespib; first compound 0.06325 µM)	relative viability (Entinostat + Luminespib; first compound 0.2 µM)	relative viability (Entinostat + Luminespib; first compound 0.6325 µM)	relative viability (Entinostat + Luminespib; first compound 2 µM)	relative viability ([1]; first compound 0.02 µM)	relative viability ([1]; first compound 0.06325 µM)	relative viability ([1]; first compound 0.2 µM)	relative viability ([1]; first compound 0.6325 µM)	relative viability ([1]; first compound 2 µM)	relative viability (Entinostat + Lapatinib; first compound 0.02 µM)	relative viability (Entinostat + Lapatinib; first compound 0.06325 µM)	relative viability (Entinostat + Lapatinib; first compound 0.2 µM)	relative viability (Entinostat + Lapatinib; first compound 0.6325 µM)	relative viability (Entinostat + Lapatinib; first compound 2 µM)	relative viability (SGI-1776 + Pictilisib; first compound 0.08 µM)	relative viability (SGI-1776 + Pictilisib; first compound 0.8 µM)	relative viability (SGI-1776 + Pictilisib; first compound 2.53 µM)	relative viability (SGI-1776 + Pictilisib; first compound 8 µM)
HOP-62	0.944	0.818	0.824	0.71	0.431	0.765	0.743	0.547	0.574	0.323	1.12	0.994	0.907	0.532	0.323	0.849	0.734	1.08	0.607
NCI-H661	0.838	0.868	0.834	0.642	0.493	0.88	0.853	0.688	0.736	0.64	0.573	0.587	0.8	0.661	0.476	0.526	0.429	0.363	0.317
NCI-H358	0.48	0.484	0.407	0.238	0.159	–	0.134	0.109	0.152	0.15	0.467	0.438	0.521	0.367	0.287	0.37	0.375	0.334	0.253
BEN	0.217	0.32	0.263	0.472	0.349	0.309	0.297	0.334	0.371	0.325	0.894	0.743	0.562	0.373	0.219	0.736	0.643	0.504	0.396
SK-MES-1	0.798	1.03	0.891	0.882	0.353	0.342	0.406	0.259	0.239	0.244	0.511	0.525	0.494	0.488	0.395	0.364	0.353	0.33	0.278
NCI-H1792	0.5	0.519	0.362	0.392	0.469	0.746	0.79	0.768	0.464	1.13	0.953	0.96	0.836	0.767	0.513	0.282	0.264	0.284	0.231
NCI-H2085	0.414	0.426	0.384	0.278	0.251	0.223	0.252	0.25	0.204	0.258	0.748	0.825	0.744	0.545	0.443	0.533	0.505	0.53	0.356
